Columns and labels:
GBM cells = assay: Incucyte caspase-3/7 apoptosis assay; type: cell-based, human; conditions: three serum-cultured GBM cell lines, increasing concentrations
Procedure: For the apoptosis assay, cells were plated in a 96-wells plate at low cell densities (500–1000 cells/well) and allowed to adhere overnight under standard culture conditions (37 °C, 5% CO₂). After 24 h, cells were exposed to different concentrations of NTRC0066-0. Apoptosis was measured using the Incucyte® Caspase-3/7 Dye for Apoptosis (Sartorius AG, Göttingen, Germany), which was added at a final concentration of 2.5 µM. As a positive control for the induction of Caspase 3/7-mediated apoptosis, cells were treated with a combination of S63845 and navitoclax (final concentrations 3 µM and 1.5 µM, respectively). Apoptotic cell death was assessed in real time with the Incucyte® S3 system (Sartorius AG). The Incucyte® was configured to capture phase-contrast images using a 10x objective lens. Data were collected and analyzed using the Incucyte® S3 software. Fluorescence signal confluence was quantified and normalized to the total phase-contrast confluence in each well to take variations in cell density into account. Curves were plotted using GraphPad Prism v10.3 (GraphPad Software).

P-gp [1] = assay: Brain penetration in Abcb1a/b-/- mice; type: in vivo; conditions: 1 h after 5 mg/kg i.v.
Procedure: The pharmacokinetics of NTRC 0066-0 were analyzed in wild-type (WT), Abcb1a/b^−/−, Abcg2^−/−, Abcb1a/b^−/−;Abcg2^−/− and Abcb1a/b^−/−;Abcg2^−/−;Abcc4^−/− FVB mice. All knockout mice strains have been developed at the Netherlands Cancer Institute. For i.v. administration, NTRC0066-0 was formulated in DMSO: Cremophor EL: saline (1:1:8 v/v) and injected at a dose of 5 mg/kg. For i.p and oral administration, NTRC0066-0 was administered at 5, 10 or 20 mg/kg as indicated. Serial blood sampling was done by tail vein bleeding at specific time points. At terminal time points, blood was drawn by cardiac puncture followed by tissue collection. Plasma was obtained from whole blood by centrifugation (5 min, 5,000 rpm, 4 °C) and tissues were weighed and homogenized using a FastPrep®-24 (MP-Biomedicals, NY) in 1% (w/v) bovine serum albumin (Sigma-Aldrich) in water.
NTRC 0066-0 was extracted from in vitro and in vivo samples using liquid–liquid extraction with diethyl ether. Another MPS-1 inhibitor, Compound 5 (Cpd-5), was added to the samples as an internal standard. The dried organic phase was reconstituted in 30% methanol in water (v/v). Samples were measured using an LC-MS/MS system comprising an UltiMate 3000 LC Systems (Dionex, Sunnyvale, CA) and an API 4000 mass spectrometer (Sciex, Framingham, MA). Samples were injected on to a Securityguard C18 pre-column (Phenomenex, Utrecht, The Netherlands) connected to a ZORBAX Extend-C18 column (Agilent, Santa Clara, CA). Elution was done at a flow rate of 0.2 mL/min using a 5 min gradient from 20% to 95% B (mobile phase A was 0.1% HCOOH in water (v/v) and mobile phase B was methanol). 95% B was maintained for 3 min followed by re-equilibration at 20% B. Multiple reaction monitoring parameters were 566.2/391.4 (NTRC0066-0) and 581.6/397.0 (internal standard). Analyst® 1.6.2 software (Sciex) was used for system control and data analysis.

[2] = system: orthotopic E98 GBM tumors; assay: Orthotopic E98 GBM xenograft efficacy in Abcb1a/b;Abcg2-/- mice; type: in vivo
Procedure: Orthotopic GBM tumors were induced in Abcb1a/b; Abcg2^−/− mice by stereotactic injection of E98 cells expressing firefly luciferase (200,000 cells in 2 µL HBSS (Life Technologies) at an injection speed of 1 µL/min) at 2 mm lateral, 1 mm anterior and 3 mm ventral to the bregma. Tumor growth was monitored using bioluminescence imaging by injecting D-luciferin (150 mg/kg i.p.; Promega, Madison, WI) and subsequently imaging mice on an IVIS Spectrum Imaging System (PerkinElmer, Waltham, MA). Survival was monitored daily and the humane endpoint was defined as body weight loss exceeding 20%. Time-to-recurrence was defined as the number of days elapsed until the tumor regained its pre-treatment size. Tumors were treated with CT-guided radiotherapy (2–3.5 Gy per fraction) using an X-RAD 225Cx system (Precision X-Ray, North Branford, CT), temozolomide (10 mg/kg p.o. freshly prepared from powder in an aqueous solution containing 10% v/v ethanol), NTRC0066-0 (20, 10 or 5 mg/kg p.o. in an aqueous solution containing 10% v/v DMSO and 10% v/v Cremophor EL (Life Technologies)) or different combinations thereof, as described per experiment in the Figure legends.

MELpT-KNL1 = MELpT-KNL1 foci in E98 tumors (target inhibition); type: in vivo, mice; conditions: last day of 5/10 mg/kg b.i.d.x7d schedule
Procedure: Mouse heads were fixed in 4% (v/v) formaldehyde and 5% (v/v) glacial acetic acid overnight, and subsequently decalcified in 6.5% (v/v) formic acid at 37 °C for 4 days. Decalcified tissues were paraffin embedded and cut into 4 μm coronal sections that were stained with hematoxylin and eosin (H&E), and for human Vimentin (1:4,000; M0725; DakoCytomation; Glostrup, Denmark), P-gp (1:200; 13978; Cell Signaling Technology; Danvers, MA), BCRP (1:400; ab24115; Abcam; Cambridge, UK), mouse IgG (K4001, Dako) and MELpT-KNL1 (1:50; as described previously). Sections were imaged and processed using an Aperio AT2 system and ImageScope software (v12; both Leica). MELpT-KNL1 foci were imaged using an Axio Observer Z1 system (Carl Zeiss AG; Oberkochen, Germany).

P-gp [3] = system: P-gp; set-up: method as in PMID 26153498; conditions: calcein-AM efflux assay; cited from earlier work
[4] = E98 tumors, 5/10 mg/kg b.i.d.x7d monotherapy
[5] = adjuvant: 5/10 mg/kg b.i.d.x7d after RT + TMZ vs RT + TMZ alone
[6] = recurrent E98 tumors after TMZ + RT, 20 mg/kg q.2d.x11d second-line
[7] = therapy-naive E98 tumors, 20 mg/kg q.2d.x11d monotherapy

With `CCc1cccc(CC)c1NC(=O)c1ccn2c1CCc1cnc(Nc3ccc(N4CCN(C)CC4)cc3OC)nc1-2` [NTRC 0066-0] the “Induction of apoptosis (caspase 3/7 activation)” value (GBM cells) was “did not induce apoptosis”, the “Brain concentration compared to WT mice” value (P-gp [1]) was “markedly increased” and the “Brain-plasma ratio compared to WT mice” value (P-gp [1]) was “markedly increased”. The “Plasma concentration compared to WT mice” value (P-gp [1]) was “similar”, the Survival [2, 4] was “did not observe any delay in tumor growth (Fig. 4H) or survival” and the Tumor growth [2, 4] was “did not observe any delay in tumor growth”. For the same compound, the Survival [2, 5] was “not affected”, the Time-to-recurrence [2, 5] was “not different between treatment groups” and the Tumor growth ([2]; adjuvant: 5/10 mg/kg b.i.d.x7d from day 3 after RT + TMZ (2 Gy + 10 mg/kg q.d.x2d) vs RT + TMZ alone) was “could not observe any effects on tumor growth”. The “Animals with tumor growth delay” value [2, 6] was 2 out of 7, the Long-term survivors [2, 6] was “one long-term survivor” and the Survival [2, 7] was “did not result in reduced tumor growth (Fig. 4A) or improved survival”. For the same compound, the Tumor growth [2, 7] was “did not result in reduced tumor growth”, the “Duration of reduction in MELpT-KNL1 foci in pro-/metaphase cells” value (MELpT-KNL1) was “at least 24 h” and the “Inhibition of P-gp activity” value (P-gp [3]) was “does not inhibit the activity of P-gp”.

From paper PMC12909347, “Disconnect between in vitro and in vivo efficacy of the MPS1 inhibitor NTRC 0066-0 against glioblastoma” (Cellular Oncology, 2026)
